Key:
Assay in all cases: relative viability (nuclei count vs DMSO), 5 days (fraction); higher = more cells survive
[1] = compound: Cc1ccc(Nc2nccc(N(C)c3ccc4c(C)n(C)nc4c3)n2)cc1S(N)(=O)=O [Pazopanib] + COc1cccc2cc(-c3nc([C@H]4CC[C@H](C(=O)O)CC4)n4ncnc(N)c34)[nH]c12 [OSI-027] (partner 0.5 µM)
In short: (§1)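 A single step with final 0.05% Triton X-100, 1% formaldehyde and 1 ug/ml Hoechst fixed the cells and stained nuclei 5 days after treatment. Lung cancer cell lines in 1536-well plates had been treated by pin tool the day after seeding with one drug alone or a fixed anchor-drug dose plus five library-drug doses (not always all listed) in √10 steps, and nuclei were counted on 4× images. Relative viability is the ratio of nuclei in treated wells to nuclei in vehicle wells, taken as the median of duplicate plates.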

[2] = compound: Cc1ccc(C(=O)Nc2ccc(CN3CCN(C)CC3)c(C(F)(F)F)c2)cc1C#Cc1cnc2cccnn12 [Ponatinib] + CS(=O)(=O)N1CCN(Cc2cc3nc(-c4cccc5[nH]ncc45)nc(N4CCOCC4)c3s2)CC1 [Pictilisib] (partner 1 µM)
In short: as §1

[3] = compound: Cc1ccc(C(=O)Nc2ccc(CN3CCN(C)CC3)c(C(F)(F)F)c2)cc1C#Cc1cnc2cccnn12 [Ponatinib] + CCNC(=O)c1noc(-c2cc(C(C)C)c(O)cc2O)c1-c1ccc(CN2CCOCC2)cc1 [Luminespib] (partner 0.01 µM)
In short: as §1

[4] = compound: Cc1ccc(Nc2nccc(N(C)c3ccc4c(C)n(C)nc4c3)n2)cc1S(N)(=O)=O [Pazopanib] + NC(=O)Nc1cc(-c2cccc(F)c2)sc1C(=O)N[C@H]1CCCNC1 [AZD7762] (partner 0.2 µM)
In short: as §1

Cell Line	relative viability ([1]; first compound 0.01 µM)	relative viability ([1]; first compound 0.03162 µM)	relative viability ([1]; first compound 0.1 µM)	relative viability ([1]; first compound 0.3162 µM)	relative viability ([1]; first compound 1 µM)	relative viability ([2]; first compound 0.002 µM)	relative viability ([2]; first compound 0.006325 µM)	relative viability ([2]; first compound 0.06325 µM)	relative viability ([2]; first compound 0.2 µM)	relative viability ([3]; first compound 0.002 µM)	relative viability ([3]; first compound 0.006325 µM)	relative viability ([3]; first compound 0.06325 µM)	relative viability ([3]; first compound 0.2 µM)	relative viability ([4]; first compound 0.01 µM)	relative viability ([4]; first compound 0.03162 µM)	relative viability ([4]; first compound 0.1 µM)	relative viability ([4]; first compound 0.3162 µM)	relative viability ([4]; first compound 1 µM)
H3255	0.512	0.535	0.638	0.606	0.752	0.466	0.478	0.456	0.447	0.862	0.887	0.805	0.929	0.897	0.906	0.847	0.883	0.913
HARA	0.581	0.583	0.504	0.642	0.6	0.443	0.478	0.498	0.296	0.683	0.948	0.749	0.682	0.428	0.303	0.255	0.35	0.349
HCC-15	0.622	0.825	0.7	0.669	0.815	0.644	0.758	0.823	0.701	0.306	0.22	0.661	0.212	1.3	1.15	1.31	1.22	1.15
HCC-44	0.405	0.572	0.584	0.68	0.677	0.69	0.65	0.73	0.628	0.96	0.976	1.22	1.01	1.07	0.979	0.979	1.01	0.982
HCC-827	0.775	0.752	0.784	0.801	0.731	0.952	1.13	0.899	0.854	0.476	0.914	0.446	0.589	0.244	0.201	0.217	0.231	0.213
HOP-62	0.787	0.869	0.871	0.879	0.727	0.878	0.609	0.75	0.665	0.87	0.946	0.835	0.781	0.739	0.589	0.527	0.528	0.478
LC-2-ad	0.865	1	0.84	0.808	0.99	0.353	0.239	0.191	0.207	0.968	0.93	1.17	0.855	0.834	0.835	0.906	0.92	0.85
